Here are results for two sequences from patent US20230040594A1, “MILK-DERIVED POLYPEPTIDE DERIVATIVE, COMPOSITION AND METHOD FOR PREVENTING AND TREATING OBESITY” (Nanjing Maternity and Child Health Care Hospital, priority 2021, published 2023).

Assay [1] has as its system C57BL/6J male mice fed with high-fat diet. Briefly: Weight increasing of mice with high-fat diet (Embodiment 2). To be noted: 5 and 10 mg/kg i.p. twice a week. It counts as in vivo. The method, then: C57BL/6J male mice at 6-8 weeks old were used as research subjects, and an experiment was carried out after adaptation to a SPF animal room for one week. The mice were fed with high-fat diet (with 60% of fat content) for 10 weeks to induce obesity phenotype in mice. At the same time, different drug concentrations (5 mg/kg and 10 mg/kg) were provided, and the milk-derived polypeptide derivatives corresponding to SEQ ID NO.5 were administered by intraperitoneal injection twice a week, with dissolved normal saline (Vehicle) as a control. The mice are weighed to obtain body weight and their food intake calculated every week. After the mice were killed, brown fat (BAT) at scapular, inguinal white adipose tissue (iWAT) and epididymal white adipose tissue (eWAT) were photographed, weighed to obtain wet weight and lean mass of the mice was calculated.

Assay [2] has the same test system. Nature of the assay: Glucose tolerance test (GTT) in mice with high-fat diet (Embodiment 3). It counts as in vivo. To be noted: FIG. 6. How it is done: (§1) C57BL/6J male mice at 6-8 weeks old were used as research subjects, and an experiment was carried out after adaptation to a SPF animal room for one week. The mice were fed with high-fat diet (with 60% of fat content) for 10 weeks to induce obesity phenotype in mice. At the same time, different drug concentrations (5 mg/kg and 10 mg/kg) of the milk-derived polypeptide derivatives corresponding to SEQ ID NO.5 were provided, and were administered by intraperitoneal injection twice a week, with dissolved normal saline (Vehicle) as a control.
(§2) Insulin Sensitivity: The mice are fasted overnight for 12 hours, and at a next day, insulin was injected by intraperitoneal injection at a standard of 0.75 U per kg of weight. Blood samples were taken from tail vein at 0 min, 15 min, 30 min, 60 min, 90 min and 120 min after the injection, and changes of the blood glucose in the mice were measured by a blood glucose meter to evaluate the insulin sensitivity of the mice. Glucose tolerance test: after fasting for 6 hours, the mice were injected with glucose by intraperitoneal injection at a concentration of 1 g per kg of weight. Blood samples were taken from tail vein at 0 min, 15 min, 30 min, 60 min, 90 min and 120 min after the injection, and changes of the blood glucose in the mice were measured by a blood glucose meter to evaluate the glucose tolerance of the mice.

For assay [3] the test system is unchanged. Nature of the assay: Insulin sensitivity (ITT) in mice with high-fat diet (Embodiment 3). It counts as in vivo. How it is done: as §1, §2
The test system is the same in assay [4]. Nature of the assay: Fasting blood glucose, blood lipid and insulin levels of mice with high-fat diet (Embodiment 4). It counts as in vivo. To be noted: continuous intervention for 10 weeks; 5 and 10 mg/kg i.p. twice a week; FIG. 8. How it is done: as §1, with “resolvent” for “dissolved normal”, “control. The changes of the blood glucose in the mice were detected by a Roche blood glucose meter, and changes of blood lipid and insulin level in the mice were detected by Applygen and Millipore commercial kits respectively.” for “control.”

The test system of assay [5] is brown fat (BAT) and inguinal subcutaneous white adipose tissues (iWAT). Briefly: H&E staining of adipose tissues of mice with high-fat diet (Embodiment 5). It counts as in vivo. To be noted: 10 weeks; 5 and 10 mg/kg i.p. twice a week; FIG. 9. How it is done:
C57BL/6J male mice at 6-8 weeks old were used as research subjects, and an experiment was carried out after adaptation to a SPF animal room for one week. The mice were fed with high-fat diet (with 60% of fat content) for 10 weeks to induce obesity phenotype in mice. At the same time, different drug concentrations (5 mg/kg and 10 mg/kg) were provided, and the milk-derived polypeptide derivatives corresponding to SEQ ID NO.5 were administered by intraperitoneal injection twice a week, with dissolved normal saline (Vehicle) as a control. After 10 weeks of intervention, the mice were killed, and brown fat (BAT) at scapula and inguinal subcutaneous white adipose tissues (iWAT) were taken to be fixed with a adipose tissue fixing solution (Solarbio, G2185) for 24 hours. H&E staining and a UCP1 protein immunohistochemistry study were carried out after dehydration, paraffin embedding and sectioning. The H&E staining is performed using a kit (ab245800) from Abcam, and specific steps can be found in kit instructions. Tissue sections were subjected to the immunohistochemistry study after dewaxing and antigen repairing. […] At the same time, total protein was extracted by a RIPA lysate, and expression of the UCP1 protein in the adipose tissues was detected by a Western blot method after quantifying, SDS-PAGE electrophoresis and transmembrane.

The test system of assay [6] is UCP1 protein. Nature of the assay: UCP1 protein immunohistochemistry and Western blot in adipose tissues of mice with high-fat diet (Embodiment 5). It counts as in vivo. How it is done: C57BL/6J male mice at 6-8 weeks old were used as research subjects, and an experiment was carried out after adaptation to a SPF animal room for one week. The mice were fed with high-fat diet (with 60% of fat content) for 10 weeks to induce obesity phenotype in mice. At the same time, different drug concentrations (5 mg/kg and 10 mg/kg) were provided, and the milk-derived polypeptide derivatives corresponding to SEQ ID NO.5 were administered by intraperitoneal injection twice a week, with dissolved normal saline (Vehicle) as a control. After 10 weeks of intervention, the mice were killed, and brown fat (BAT) at scapula and inguinal subcutaneous white adipose tissues (iWAT) were taken to be fixed with a adipose tissue fixing solution (Solarbio, G2185) for 24 hours. H&E staining and a UCP1 protein immunohistochemistry study were carried out after dehydration, paraffin embedding and sectioning. The H&E staining is performed using a kit (ab245800) from Abcam, and specific steps can be found in kit instructions. Tissue sections were subjected to the immunohistochemistry study after dewaxing and antigen repairing. Specifically, the sections were incubated overnight with UCP1 antibody (1:200, Proteintech) at 4 degrees. The antibody was diluted with PBS containing 1% of BSA, and a color reaction was carried out next day with a DAB kit from Abcam. Specific operations can be referred to kit experimental steps. At the same time, total protein was extracted by a RIPA lysate, and expression of the UCP1 protein in the adipose tissues was detected by a Western blot method after quantifying, SDS-PAGE electrophoresis and transmembrane.
In general terms: Immunoblotting shows a protein as a band on a membrane.

In assay [7] the test system is obese C57BL/6J male mice induced by high-fat diet for six months. Briefly: Body weight, blood glucose and adipose tissue volume of obese model mice (Embodiment 6). It counts as in vivo. How it is done:
C57BL/6J male mice at 6-8 weeks old were used as research subjects, and an experiment was carried out after adaptation to a SPF animal room for one week. The mice were fed with high-fat diet (with 60% of fat content) for six months to induce obesity phenotype in mice. After six months, the milk-derived polypeptide derivative shown by SEQ ID NO.5 (10 mg/kg) was administered by intraperitoneal injection once a day and continuously for 8 weeks. The mice were weighed every week for their weight changes, and at the same time, blood glucose changes of the mice were detected by a blood glucose meter. After intervention, the mice were killed, and then brown fat (BAT) at scapular, inguinal white adipose tissue (iWAT) and epididymal white adipose tissue (eWAT) were photographed. As mentioned above, H&E staining was also performed to observe morphological changes of lipid droplets, and expression of the UCP1 protein in adipose tissues was detected by immunohistochemistry and the Western blot methods.

Assay [8] has as its system adipose tissues of obese model mice. Briefly: H&E staining of adipose tissues of obese model mice (Embodiment 6). It counts as in vivo. The following applies: 10 mg/kg i.p. once a day for 8 weeks; FIG. 13. How it is done: as §1, with “mg/kg) were provided, and” for “mg/kg) of”, “NO.5” for “NO.5 were provided, and”, “control. […] At the same time, total protein was extracted by a RIPA lysate, and expression of the UCP1 protein in the adipose tissues was detected by a Western blot method after quantifying, SDS-PAGE electrophoresis and transmembrane.” for “control.”
(§3) C57BL/6J male mice at 6-8 weeks old were used as research subjects, and an experiment was carried out after adaptation to a SPF animal room for one week. […] The mice were weighed every week for their weight changes, and at the same time, blood glucose changes of the mice were detected by a blood glucose meter. […] As mentioned above, H&E staining was also performed to observe morphological changes of lipid droplets, and expression of the UCP1 protein in adipose tissues was detected by immunohistochemistry and the Western blot methods.

The subject of assay [9] is UCP1 protein. Nature of the assay: UCP1 protein immunohistochemistry and Western blot in adipose tissues of obese model mice (Embodiment 6). It counts as in vivo. The following applies: 10 mg/kg i.p. once a day for 8 weeks; FIG. 13 and FIG. 14. How it is done:
as §1, with “mg/kg) were provided, and” for “mg/kg) of”, “NO.5” for “NO.5 were provided, and”, “control. […] At the same time, total protein was extracted by a RIPA lysate, and expression of the UCP1 protein in the adipose tissues was detected by a Western blot method after quantifying, SDS-PAGE electrophoresis and transmembrane.” for “control.”
as §3

The conditions of assay [10]: previous studies; can scavenge free radicals produced in vivo; cited from earlier work.
Setting [11] is: 10 mg/kg i.p. once a day for 8 weeks after six months high-fat diet, FIG. 11.

For “GRKKRRQRRRPPQQVKEAMAPK [SEQ ID NO.5, theone tested in Embodiments 2-6]”, the “fat content (wet weight test of the adipose tissues)” value in assay [1] (10 weeks, FIG. 4) is reported as “decreased significantly”. Further, the “lean mass of the mice” value in assay [1] (10 weeks, FIG. 5) is “no significant change”. Besides, the “volumes of subcutaneous and abdominal white adipose tissues” value in [1] (after dissection, 10 weeks, FIG. 3) is reported as “decreased significantly”. The “weight of the mice vs control group (Vehicle)” value in assay [1] (by 10th week) is listed as “significantly lower”. Moreover, in [2] (10 mg/kg for 10 weeks), the “area under the curve (GTT)” value was “significant statistical significance”. The “blood glucose levels within 2 hours after glucose injection vs control” value in assay [2] (continuous intervention for 10 weeks, 5 and 10 mg/kg, glucose 1 g per kg i.p.) was “lower than those of the control group”. Besides, in assay [3] (5 mg/kg, FIG. 7), the “insulin sensitivity (ITT)” value is reported as “certain statistical significance”. In assay [3] (continuous intervention for 10 weeks, 5 and 10 mg/kg, insulin 0.75 U per kg i.p.), the “blood glucose levels within 2 hours after insulin injection vs control” value was “lower than those of the control group”. Besides, in assay [4], the “blood lipid (triglyceride) level” value is reported as “significantly reduced”, the “fasting blood glucose level” value is recorded as “significantly reduced” and the insulin level entry is on record as “significantly reduced”. Also, the “morphology sizes of lipid droplets in brown fat and white adipose tissues (H&E staining)” value in [5] is “significantly reduced”. Moreover, the “effect on UCP1 protein content at low drug concentration (Western blot)” value in the assay with UCP1 protein [6] (5 mg/Kg, FIG. 10) is recorded as “good effect”. For the same sequence, in the assay with UCP1 protein [6] (10 weeks, 5 and 10 mg/kg i.p. twice a week, FIG. 9), the “UCP1 immunohistochemistry brown areas in brown and white adipose tissues” value is reported as “significantly increased”. The “contents of the UCP1 protein in brown and white adipose tissues (Western blot)” value in the assay with UCP1 protein [6] (10 weeks, 5 and 10 mg/kg, certain dose-dependent relationship, FIG. 10) is recorded as “significantly increased”. Further, in assay [7] (setting [11]), the “body weight of the obese mice” value is “significantly reduced” and the fasting blood glucose result is on record as “decreased”. Further, in assay [7] (10 mg/kg i.p. once a day for 8 weeks, after dissection, FIG. 12), the “tissue volumes of white fat (subcutaneous and abdominal) and brown fat (scapular areas)” value is “significantly reduced”. Also, the “sizes of the lipid droplets in the two tissues (H&E staining)” value in assay [8] is “decreased significantly”. In the assay with UCP1 protein [9], the “expression of UCP1 in two kinds of adipose tissues (immunohistochemistry and Western blot)” value is recorded as “increased”.
As for “VKEAMAPK [Val-Lys-Glu-Ala-Met-Ala-Pro-Lys, isolated linear milk-derived polypeptide from β-casein 98-105 amino acids]”, the antioxidant activity result in [10] is reported as “antioxidant activity”.
